Values quoted from earlier work as cited in paper PMC3815949 (Microbial biotechnology, 2009).

Test system: DmpA
Type: biochemical, Brucella anthropi

NCCC(N)=O [H-β-Ala-NH2]
Km: ~1.5 mM

N[C@@H](Cc1cnc[nH]1)C(=O)O [L-histidine]
Km: ~51 mM
